Measurements: US20060194845A1, “Use of ALK 5 inhibitors to modulate or inhibit myostatin activity leading to increased lean tissue accretion in animals” (Schering Corporation, priority 2004, published 2006)

Test system: rats
Assay: Effect of Compound A on lean and fat tissue content in rats (Molecular Resonance Imaging)
Type: in vivo, rat
Settings: 10 mg/kg in feed
Experimental: Ten animals were treated with Compound A and a second group of ten animals served as a control group. Baseline values, in grams, of lean and fat tissue were assessed using […] Resonance Imaging technology for all animals.

Question: With `NC(=O)c1ccc(-c2nc(-c3ccc4c(c3)OCO4)c(-c3ccccn3)[nH]2)cc1` [Compound A] as the compound, how does the “fat content vs control (observation in words)” value read?
Answer: slight trend towards decreased fat content

Question: And the “Fat (g) Δ (change in grams of tissue from baseline)” value (21 days)?
Answer: 50.6 g

Question: And the “Lean (g) Δ (change in grams of tissue from baseline)” value (21 days)?
Answer: 93.7 g

Question: What about the “Fat (g) Δ (change in grams of tissue from baseline)” value (39 days) of the same compound?
Answer: 73.6 g

Question: What about the “increase in lean tissue compared to the control group” value (39 days, 137.8 vs. 115.3, p<0.0036) of the same compound?
Answer: 19.6%

Question: What about the “Lean (g) Δ (change in grams of tissue from baseline)” value (39 days, p<0.0036 vs control, 10 mg/kg) of the same compound?
Answer: 137.8 g
